Columns and labels:
huCTLA4 = huCTLA4 (Homo sapiens, UniProt P16410); assay: Antagonism of CD80/CTLA-4 binding on CHO cells expressing CTLA-4; design: Full-length mammalian surface expression constructs for each of human CTLA-4, PD-L1, and CD28; settings: 25 nM fluorochrome-conjugated wild-type CD80-Fc; FIG. 21
Procedure: After washing, cells were incubated with 25 nM fluorochrome-conjugated wild-type CD80-Fc. Bound fluorescent competitor protein was detected and measured by flow cytometry.
(§1) The multivalent variant CD80 IgSF domain fusion proteins were assessed to test for blocking of the PD-L1/PD-1 and CTLA-4/CD80 interaction performed substantially as described in Example 15. CHO/OKT3/PD-L1 and CHO/CTLA-4 cells were counted and plated at 100,000 cells/well and then incubated with fluorescently conjugated PD-1-Fc and CD80-Fc. Exemplary multivalent variant CD80 IgSF domain fusion proteins were incubated with the cells for 30 minutes. […] Cells were washed and incubated with 100 nM fluorescently conjugated PD-1-Fc and CD80-Fc competitor for 30 minutes. Cells were then washed and samples were acquired on a flow cytometer and MFIs of the fluorescently labeled molecules were determined.

huPD-L1/B16-F10 cells = assay: huPD-L1/B16-F10 melanoma model; assay type: in vivo, mouse
Procedure: This variant is an exemplary variant identified to have increased binding affinity for PD-L1 compared to wild-type CD80 and activity to block PD-L1 and CTLA-4 and to provide PD-L1-dependent T cell activation via CD28 costimulatory receptor. To test the anti-tumor activity of the exemplary variant, it was evaluated alone or in combination with an anti-mouse PD-1 monoclonal antibody (clone RMP1-14, rat IgG2a) in mice bearing human PD-L1 (huPD-L1)-expressing B16-F10 tumors, which is a syngeneic mouse melanoma model. This model is an aggressive and, in many cases, a treatment-resistant model.
Subconfluent cells (˜80% confluent) were harvested on the day of implantation (study day 0). The cells were washed twice and brought to a final concentration of 5×10^6 cells/mL in DPBS. Female C57BL/6NJ mice (Jackson Labs, USA) were implanted subcutaneously with approximately 0.5×10^6 huPD-L1/B16-F10 cells. […] The B16-F10 cells at time of implant were evaluated to confirm expression of huPD-L1 by flow cytometry. […]
Tumors were measured with electronic calipers two-dimensionally twice weekly, beginning on day 6 post-tumor cell implant. Tumor volume was calculated as length×(width×2)×0.5, with the length being the longer of the two measurements. […] Calculations for the mean and median were determined on the last day in which at least 70% of mice were alive on study (day 18 post-tumor cell implant).

[1] = system: human PD-L1-transduced MC38 tumor; assay: huPD-L1 MC38 tumor model, combination with anti-PD-L1 or anti-CD28 blocking antibodies; assay type: in vivo, mouse
Procedure: Anti-tumor activity was evaluated by serial tumor measurements.

PD-L1/PD-1 interaction = target: T1, PD-L1/PD-1 interaction (Homo sapiens, UniProt Q9NZQ7); assay: PD-L1/PD-1 binding and blocking on CHO/PD-L1 cells; settings: fluorescently conjugated PD-1-Fc; FIG. 7
T1 construct: expressed in transfected cells
T1 sequence (Q9NZQ7 19-290): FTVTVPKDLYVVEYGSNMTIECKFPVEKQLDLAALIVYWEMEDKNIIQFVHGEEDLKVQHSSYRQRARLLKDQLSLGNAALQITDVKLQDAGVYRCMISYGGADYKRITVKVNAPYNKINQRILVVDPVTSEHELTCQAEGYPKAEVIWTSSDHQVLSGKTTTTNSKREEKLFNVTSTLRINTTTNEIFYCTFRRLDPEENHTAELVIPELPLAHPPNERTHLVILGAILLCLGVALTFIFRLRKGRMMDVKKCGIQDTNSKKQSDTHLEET
Procedure: Binding of selected immunomodulatory fusion proteins to cells expressing PD-L1 was assessed to test for blocking of the PD-L1/PD-1 interaction. […] Samples were acquired on a flow cytometer and MFIs of the fluorescently labeled PD-1 were determined by Flowjo software analysis.
as §1

MC38 hPD-L1 tumor cells [2] = assay: Flow cytometry of tumors and draining lymph nodes of treated mice; assay type: in vivo, mouse; settings: three days following the 2nd dose; vs Fc control or anti-PD-L1
Excerpt: Tissues were processed to single cell suspensions (tumors were enzymatically digested as a part of the processing, whereas draining LN were not), and subjected to multi-color flow cytometric analysis of CD8+ T cells on the CD45+ cell subset (immune cells in either the LN or tumor), as well as % hIgG+ staining on the CD45− cell subset (tumor cells) to detect molecules (CD80-IgV-Fc or anti-PD-L1) bound to the tumor cells.

MC38 hPD-L1 tumor cells [3] = assay: MC38 hPD-L1 tumor model in C57BL/6 mice; assay type: in vivo, mouse
Procedure: Mouse MC38 tumor cells were stably transfected with human PD-L1 (MC38 hPD-L1) and implanted subcutaneously into C57BU6 mice. […] Tumor volume was tracked over time.
70 female C57CL/6 mice, containing similar tumor volumes of approximately 50-51 mm^3, following implantation of MC38 hPD-L1 tumor cells, were staged and divided into 5 treatment groups containing 14 mice each. […] Tumor volumes were measured on days 7, 10, and 12. On day 13, 5 animals were sacrificed for analysis as described in the sections below. Tumor measurements resumed for the remaining 9 mice for each group on days 17, 20 and 27. On days 26, 28, and 31, the animals in Group 1 (Fc isotype control) received an intratumoral injection of 100 μg E35D/M47L CD80-IgV-Fc.
95 female C57BU6 mice were implanted with MC38 hPD-L1 tumor cells. The tumors were staged on Day 7, and 77 mice with similar tumor volumes of approximately 60 mm^3 were divided into 7 treatment groups containing 11 mice each.
On day 49, tumor-free mice, from Groups 3, 4, 6, and 7, and 2 naïve C57CL/6 mice were re-challenged with an additional injection of hPD-L1 MC38 cells. Tumor volumes were measured on days 56, 59, and 63. The results are depicted in FIG. 13. […] At day 59, 8/8 mice from Group 3, 1/2 mice from Group 4, 1/1 mouse from Group 6, and 2/2 mice from Group 7 were tumor-free, and by day 63, all mice in Group 3, Group 4, Group 6, and Group 7 were tumor-free.
75 animals were staged into 3 treatment groups 7 days after implantation with hPD-L1 MC38 tumor cells. […] Tumor volumes were measured every 3-4 days, from Day 11 until Day 35. 3 days after the 1st dose, 2nd dose and 3rd dose, 4 mice from each group were sacrificed for tumor and LN analyses, leaving 13 mice for tumor volume measurements throughout the study period.

[4] = 3 injections of 100 μg on Days 8, 10 and 12
[5] = re-challenged on day 49 with hPD-L1 MC38 cells

huCTLA4, sequence (P16410 36-223): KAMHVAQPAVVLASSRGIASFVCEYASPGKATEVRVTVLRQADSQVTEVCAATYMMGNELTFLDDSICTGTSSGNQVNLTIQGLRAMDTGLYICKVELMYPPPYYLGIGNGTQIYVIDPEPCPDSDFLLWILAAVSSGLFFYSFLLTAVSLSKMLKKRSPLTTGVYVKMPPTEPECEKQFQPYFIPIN

H18Y/A26E/E35D/M47L/V68M/A71G/D90G: variant CD80 IgV-Fc (inert), IgV SEQ ID NO:491
antagonism of binding of CD80 to CTLA-4 (huCTLA4): antagonized the binding of CD80 to CTLA-4 | tumor growth inhibition (huPD-L1/B16-F10 cells; in combination with anti-PD-1 mAb, day 18): 92% | tumor growth (median tumor volumes) (huPD-L1/B16-F10 cells; in combination with anti-mouse PD-1 mAb, IP days 6, 8, 11): significantly reduced tumor growth | antitumor activity ([1]; coadministration with anti-CD28 or anti-PD-L1): coadministration with either anti-CD28 or anti-PD-L1 reduced the antitumor activity | antitumor activity ([1]; monotherapy 100 μg IP): demonstrated activity superior to PD-L1 blockade alone | blocking of binding of PD-1 to PD-L1 (PD-L1/PD-1 interaction): antagonize or block binding of PD-1 to PD-L1 | percentages of CD8+ T cells in TIL and LN (MC38 hPD-L1 tumor cells [2]): significantly greater | mice with no detectable tumors (tumor-free) upon completion of the study (MC38 hPD-L1 tumor cells [3]; 100 μg on days 7, 9 and 11, 11 mice per group): 8 mice | tumor-free mice at day 35 (MC38 hPD-L1 tumor cells [3]; [4]): 6/13 | tumor-free mice on Day 18 (MC38 hPD-L1 tumor cells [3]; [4]): 6/13 | tumor growth / tumor volume (MC38 hPD-L1 tumor cells [3]; i.p. dosing, compared to Fc control or anti-PD-L1): greater decrease in the median and mean tumor volumes | tumor-free mice after re-challenge, day 59 (MC38 hPD-L1 tumor cells [3]; [5]): 8/8 | tumor-free mice after re-challenge, day 63 (MC38 hPD-L1 tumor cells [3]; [5]): tumor-free

Source: patent publication US20220177587A1, “METHODS AND USES OF VARIANT CD80 FUSION PROTEINS AND RELATED CONSTRUCTS” (Alpine Immune Sciences, Inc., priority 2018, published 2022)
